Assay results as given in PubChem BioAssay (NCI).
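Values below derive from 48-hour exposures of cells grown in 96-well plates, with endpoints linearly interpolated between the two concentrations bracketing the appropriate inhibition level. TGI denotes the concentration required for complete inhibition of growth.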

What was measured:
Experiment in all cases: growth of human tumour cells (NCI), 48 h
[1] = test system: SF-295 CNS
[2] = test system: HOP-62 NSCLC
[3] = test system: NCI-H226 lung
[4] = test system: MDA-MB-231 breast
[5] = test system: HCT-116 colon
[6] = test system: SN12C renal
[7] = test system: NCI-H23 lung
[8] = test system: DU-145 prostate
[9] = test system: SF-539 CNS
[10] = test system: OVCAR-8 ovarian
[11] = test system: RXF 393 renal
[12] = test system: OVCAR-4 ovarian
[13] = test system: NCI/ADR-RES ovarian

Structure (SMILES) | TGI [1] | TGI [2] | TGI [3] | TGI [4] | TGI [5] | TGI [6] | TGI [7] | TGI [8] | TGI [9] | TGI [10] | TGI [11] | TGI [12] | TGI [13]
COC(=O)CCC1=C(CC(=O)OC)C(C)(OC)N=C1NC(=O)OCc1ccccc1 (stereo unspecified) | > 100 µM | > 100 µM | > 100 µM | > 100 µM | > 100 µM | > 100 µM | > 100 µM | > 100 µM | > 100 µM | > 100 µM | > 100 µM | > 100 µM | > 100 µM
O=CNNC(=O)Nc1cccc2ccccc12 | > 100 µM | > 100 µM | > 100 µM | > 100 µM | > 100 µM | > 100 µM | > 100 µM | > 100 µM | > 100 µM | > 100 µM | > 100 µM | > 100 µM | > 100 µM
C=C(C(=O)O)[C@@H]1C[C@@H]2O[C@H]1[C@@H](O)[C@@H](C)CCCC(C)=CCC[C@@]2(C)O | > 100 µM | > 100 µM | > 100 µM | > 100 µM | > 100 µM | > 100 µM | > 100 µM | > 100 µM | > 100 µM | > 100 µM | > 100 µM | > 100 µM | > 100 µM
c1cc2c(cc1NC1=NCCO1)OCO2 | > 100 µM | > 100 µM | > 100 µM | > 100 µM | > 100 µM | > 100 µM | > 100 µM | > 100 µM | > 100 µM | > 100 µM | > 100 µM | > 100 µM | > 100 µM
CCOC(=O)c1[nH]c(-c2[nH]c(-c3[nH]c(-c4[nH]c(C(=O)OCC)c(C)c4C(=O)OCC)c(C(=O)OCC)c3C)c(C)c2C(=O)OCC)c(C(=O)OCC)c1C | > 100 µM | > 100 µM | > 100 µM | > 100 µM | > 100 µM | > 100 µM | > 100 µM | > 100 µM | > 100 µM | > 100 µM | > 100 µM | > 100 µM | > 100 µM
Nc1nc(Cl)c(N)c(NCC2(CO)CC2)n1 | > 100 µM | > 100 µM | > 100 µM | > 100 µM | > 100 µM | > 100 µM | > 100 µM | > 100 µM | > 100 µM | > 100 µM | > 100 µM | > 100 µM | > 100 µM
Cc1cc2/c(=C\c3ccc(N(C)C)cc3)c3ccccc3n2[n+]1C | 12.8 µM | 8.45 µM | 5.87 µM | 3.66 µM | 2.55 µM | 1.65 µM | 3.23 µM | 4.16 µM | 5.61 µM | 1.78 µM | 10.4 µM | 10.3 µM | > 100 µM
